# Where a SMILES comes first, the peptide text is derived from it. Bridges are numbered along the chain shown (N, C = ends). [ ]: non-standard residue; d: D form. The star is where a group is joined. X1 = NC[C@@H](CC(=O)*)c1cccc(Cl)c1; Dab = NCC[C@H](N)C(=O)O; Dap = NC[C@H](N)C(=O)O
# Experiments:
# [1] = test system: K. pneumoniae ATCC 10031 (SEN) and K. pneumoniae ATCC 700603 (MDR); assay: Frequency-of-resistance (FoR) assay, relative MIC of mutants; type: cell-based, Klebsiella pneumoniae
# In short: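 About 10^10 cells, grown overnight in MHB at 37 °C and washed, were plated on agar containing antibiotic at concentrations the strain is susceptible to, for 48 h at 37 °C. Ten colonies from the highest concentration were MIC-tested; relative MIC = MICevolved/MICancestor.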
# [2] = test system: K. pneumoniae ATCC 10031 (SEN) and K. pneumoniae ATCC 700603 (MDR); assay: Adaptive laboratory evolution (ALE), relative MIC of evolved lines; type: cell-based, Klebsiella pneumoniae
# In short: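 Ten parallel populations per antibiotic–ancestor pair were evolved in MHB at 37 °C, starting near 50% growth-inhibiting drug. Every 72 h they were passaged into 0.5–2.5× increasing concentrations, keeping the highest-drug well with OD600 > 0.2.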
# [3] = KP-MDR (Klebsiella pneumoniae ATCC 700603), evolved line 2
compound,measurement,setting,value
CC(C)C[C@@H]1NC(=O)[C@@H](Cc2ccccc2)NC(=O)[C@H](CCN)NC(=O)[C@@H](NC(=O)[C@H](CN)NC(=O)[C@@H](NC(=O)C[C@H](CN)c2cccc(Cl)c2)[C@@H](C)O)CCNC(=O)[C@H]([C@@H](C)O)NC(=O)[C@H](CCN)NC(=O)[C@H](CCN)NC1=O [SPR206] (X1-T[Dap][Dab][Dab][dF]L[Dab][Dab]T; lactam 3-C (inferred); N-terminus assumed),Relative MIC,"[1]; FoR assay, Klebsiella pneumoniae ATCC 10031 (KP-SEN), evolved line 1",64
same,Relative MIC,"[1]; FoR assay, Klebsiella pneumoniae ATCC 10031 (KP-SEN), evolved line 2",1
same,Relative MIC,"[1]; FoR assay, Klebsiella pneumoniae ATCC 10031 (KP-SEN), evolved line 3",256
same,Relative MIC,"[1]; FoR assay, Klebsiella pneumoniae ATCC 700603 (KP-MDR), evolved line 1",64
same,Relative MIC,"[1]; FoR assay, Klebsiella pneumoniae ATCC 700603 (KP-MDR), evolved line 2",64
same,Relative MIC,"[1]; FoR assay, Klebsiella pneumoniae ATCC 700603 (KP-MDR), evolved line 3",64
same,MIC of evolved line,"[1]; Klebsiella pneumoniae ATCC 10031 (KP-SEN), evolved line 1",32 µg/mL
same,MIC of evolved line,"[1]; Klebsiella pneumoniae ATCC 10031 (KP-SEN), evolved line 2",0.25 µg/mL
same,MIC of evolved line,"[1]; Klebsiella pneumoniae ATCC 10031 (KP-SEN), evolved line 3",128 µg/mL
same,Relative MIC,"[1]; Klebsiella pneumoniae ATCC 10031 (KP-SEN), evolved line 1 versus ancestor",64
same,Relative MIC,"[1]; Klebsiella pneumoniae ATCC 10031 (KP-SEN), evolved line 2 versus ancestor",1
same,Relative MIC,"[1]; Klebsiella pneumoniae ATCC 10031 (KP-SEN), evolved line 3 versus ancestor",256
same,MIC of evolved line,"[1]; Klebsiella pneumoniae ATCC 700603 (KP-MDR), evolved line 1",32 µg/mL
same,MIC of evolved line,"[1]; Klebsiella pneumoniae ATCC 700603 (KP-MDR), evolved line 2",32 µg/mL
same,MIC of evolved line,"[1]; Klebsiella pneumoniae ATCC 700603 (KP-MDR), evolved line 3",32 µg/mL
same,Relative MIC,"[1]; Klebsiella pneumoniae ATCC 700603 (KP-MDR), evolved line 1 versus ancestor",64
same,Relative MIC,"[1]; Klebsiella pneumoniae ATCC 700603 (KP-MDR), evolved line 2 versus ancestor",64
same,Relative MIC,"[1]; Klebsiella pneumoniae ATCC 700603 (KP-MDR), evolved line 3 versus ancestor",64
same,Relative MIC,"[2]; ALE, K. pneumoniae ATCC 700603 (KP-MDR), evolved line 7",512
same,Relative MIC,"[2]; ALE, K. pneumoniae ATCC 700603 (KP-MDR), evolved line 8",1024
same,Relative MIC,"[2]; ALE, K. pneumoniae ATCC 700603 (KP-MDR), evolved line 9",1024
same,Relative MIC,"[2]; ALE, K. pneumoniae ATCC 700603 (KP-MDR), evolved line 10",512
same,Relative MIC,"[2]; ALE, Klebsiella pneumoniae ATCC 10031 (KP-SEN), evolved line 1",2048
same,Relative MIC,"[2]; ALE, Klebsiella pneumoniae ATCC 10031 (KP-SEN), evolved line 2",2
same,Relative MIC,"[2]; ALE, Klebsiella pneumoniae ATCC 10031 (KP-SEN), evolved line 3",2048
same,Relative MIC,"[2]; ALE, Klebsiella pneumoniae ATCC 10031 (KP-SEN), evolved line 4",2048
same,Relative MIC,"[2]; ALE, Klebsiella pneumoniae ATCC 10031 (KP-SEN), evolved line 6",2048
same,Relative MIC,"[2]; ALE, Klebsiella pneumoniae ATCC 10031 (KP-SEN), evolved line 7",2
same,Relative MIC,"[2]; ALE, Klebsiella pneumoniae ATCC 10031 (KP-SEN), evolved line 8",2
same,Relative MIC,"[2]; ALE, Klebsiella pneumoniae ATCC 10031 (KP-SEN), evolved line 10",2048
same,Relative MIC,"[2]; ALE, Klebsiella pneumoniae ATCC 700603 (KP-MDR), evolved line 1",256
same,Relative MIC,"[2]; ALE, Klebsiella pneumoniae ATCC 700603 (KP-MDR), evolved line 2",1024
same,Relative MIC,"[2]; ALE, Klebsiella pneumoniae ATCC 700603 (KP-MDR), evolved line 3",512
same,Relative MIC,"[2]; ALE, Klebsiella pneumoniae ATCC 700603 (KP-MDR), evolved line 4",256
same,Relative MIC,"[2]; ALE, Klebsiella pneumoniae ATCC 700603 (KP-MDR), evolved line 5",256
same,Relative MIC,"[2]; ALE, Klebsiella pneumoniae ATCC 700603 (KP-MDR), evolved line 6",512
same,MIC of evolved line,"[2]; KP-MDR (K. pneumoniae ATCC 700603), evolved line 1 of the given antibiotic",128 µg/mL
same,Relative MIC,"[2]; KP-MDR (K. pneumoniae ATCC 700603), evolved line 1 vs ancestor",256
same,MIC of evolved line,"[2]; KP-MDR (K. pneumoniae ATCC 700603), evolved line 2 of the given antibiotic",512 µg/mL
same,Relative MIC,"[2]; KP-MDR (K. pneumoniae ATCC 700603), evolved line 2 vs ancestor",1024
same,MIC of evolved line,"[2]; KP-MDR (K. pneumoniae ATCC 700603), evolved line 3 of the given antibiotic",256 µg/mL
same,Relative MIC,"[2]; KP-MDR (K. pneumoniae ATCC 700603), evolved line 3 vs ancestor",512
same,MIC of evolved line,"[2]; KP-MDR (K. pneumoniae ATCC 700603), evolved line 4 of the given antibiotic",128 µg/mL
same,Relative MIC,"[2]; KP-MDR (K. pneumoniae ATCC 700603), evolved line 4 vs ancestor",256
same,MIC of evolved line,"[2]; KP-MDR (K. pneumoniae ATCC 700603), evolved line 5 of the given antibiotic",128 µg/mL
same,Relative MIC,"[2]; KP-MDR (K. pneumoniae ATCC 700603), evolved line 5 vs ancestor",256
same,MIC of evolved line,"[2]; KP-MDR (K. pneumoniae ATCC 700603), evolved line 6 of the given antibiotic",256 µg/mL
same,Relative MIC,"[2]; KP-MDR (K. pneumoniae ATCC 700603), evolved line 6 vs ancestor",512
same,MIC of evolved line,"[2]; KP-MDR (K. pneumoniae ATCC 700603), evolved line 7 of the given antibiotic",256 µg/mL
same,Relative MIC,"[2]; KP-MDR (K. pneumoniae ATCC 700603), evolved line 7 vs ancestor",512
same,MIC of evolved line,"[2]; KP-MDR (K. pneumoniae ATCC 700603), evolved line 8 of the given antibiotic",512 µg/mL
same,Relative MIC,"[2]; KP-MDR (K. pneumoniae ATCC 700603), evolved line 8 vs ancestor",1024
same,MIC of evolved line,"[2]; KP-MDR (K. pneumoniae ATCC 700603), evolved line 9 of the given antibiotic",512 µg/mL
same,Relative MIC,"[2]; KP-MDR (K. pneumoniae ATCC 700603), evolved line 9 vs ancestor",1024
same,MIC of evolved line,"[2]; KP-MDR (K. pneumoniae ATCC 700603), evolved line 10 of the given antibiotic",256 µg/mL
same,Relative MIC,"[2]; KP-MDR (K. pneumoniae ATCC 700603), evolved line 10 vs ancestor",512
same,Relative MIC,"[2]; KP-MDR (Klebsiella pneumoniae ATCC 700603), evolved line 1",256
same,Relative MIC,[2]; [3],1024
same,Relative MIC (log10),[2]; [3],3.0103 log10
